Experimental data as given in patent US10993940B2, “Methods of enhancing immune response” (NOVARTIS AG, priority 2016, dated 2021).
“Also recorded” adds a separate entry of the source.

Experiments:
[1] = oncology indications; cited from earlier work
[2] = system: respiratory tract infections; assay: Respiratory tract infections during the 6 weeks of study drug treatment; format: in vivo, human; details: BEZ235 10 mg daily
Method: (Top) The percentage of subjects in each cohort who reported having one or more respiratory tract infections during the 6 weeks they were treated with study drug is shown. (Bottom) The percentage of subjects who experienced respiratory tract infections of moderate severity during the 6 weeks they were treated with study drug is shown. No subjects in the study experienced respiratory tract infections that were assessed as severe. The numbers on top of each bar indicate the percent change relative to placebo.
The rate of infections during the 6 weeks subjects were treated with study drug was also examined. The main infections that occurred during the 6 weeks of study drug treatment were respiratory tract infections.

[3] = human, in vivo
Method: In some embodiments, dosing regimens contemplated herein comprise administering daily an amount of RAD001 ranging from about 0.015 mg to about 0.1 mg.

[4] = target: mTORC1 and mTORC2 (Homo sapiens, UniProt P42345); details: low concentration; cited from earlier work
[5] = system: immune system and interferon-induced gene expression in whole blood; assay: RNAseq gene expression profiling and pathway enrichment analysis in whole blood, baseline vs after 6 weeks of treatment; format: in vivo, Homo sapiens; details: for Up-regulated genes: Tukey outlier of log 2(FC post- vs pre-treatment); for Mean FC Genes In Pathway: whole blood, post- vs pre-treatment (6 weeks)
Method: Peripheral venous blood samples were collected into PAXgene Blood RNA tubes. Total RNA was purified from PAXgene collected blood and the quality and yield of the isolated RNA assessed using an Agilent 2100 Bioanalyzer (Agilent Technologies, Santa Clara, Calif., USA). RNA-Seq libraries were prepared from the RNA using the Illumina TruSeq Stranded Total RNA with the Ribo-Zero Globin Kit. This kit performed the removal of ribosomal RNA and globin mRNA in a single step. The obtained libraries were sequenced using the Illumina HiSeq2500 platform in paired-end mode to a read length of 2×76 base-pairs (bp). Images from the instrument were processed using the manufacturer's software to generate FASTQ sequence files. Read quality was assessed by running FastQC (version 0.10) on the FASTQ files. […] An average of 100 million 76 bp paired-end reads per sample were mapped to the Homo sapiens genome (version GRCh38) and RefSeq UCSC was used for human gene and transcript annotation. An in-house gene quantification pipeline was used to determine the number of counts mapping to each gene (Schuierer, S. & Roma, G. The exon quantification pipeline (EQP): a comprehensive approach to the quantification of gene, exon and junction expression from RNA-seq data. Nucleic acids research (2016)). On average, 88% of the total reads were mapped to the genome or the transcripts, and 30% of the aligned reads mapped to expressed sequences. […] Any gene with an average expression of less than one count per million in any treatment/time condition was considered undetectable and removed from further analysis. Count data for remaining genes was then normalized in R Statistical Computing Software (v3.1.3) using the voom normalization procedure located in the limma package (Law, C W, Chen, Y, Shi, W, and Smyth, G K (2014). Voom: precision weights unlock linear model analysis tools for RNA-seq read counts. Genome Biology 15, […]). […] Thus, we included the value of this principle component as an adjustment for technical variation in subsequent analysis. For each gene, the following linear mixed model was fit to the voom-normalized expression data, adjusting for relevant covariates (age, gender, and BMI) as well as PC1 using SAS v9.3 software. • proc mixed […]; • class SubjID Day Trt Gender; • model log 2[…] Age Gender Bmi/solution DDFM=KenwardRoger; • repeated Day/type=un subject=SubjID; • by gene; where log 2exprs refers to the voom-normalized expression measurement; Day refers to the timepoint the sample was taken (pre- or post-dose); Trt refers to the treatment group of the subject; PC1 refers to the value of PC1 for that sample; Age refers to the age of the subject; Gender refers to the sex of the subject; Bmi refers to the body mass index of the subject; and SubjID refers to the ID of the subject. Differential expression fold changes and p-values were obtained using the SAS estimate statement. […] These gene expression signatures consisted of the post-vs pre-treatment fold change and p-values for each treatment. […] Canonical pathways (c2.cp.v5.0.entrez.gmt) were downloaded from the canonical signatures database (http://software.broadinstitute.org/gsea/msigdb/). Signatures were defined as described in the “RNASeq Differential Expression Analysis” section. For each pathway and treatment response signature, a weighted KS test was performed as previously described (Subramanian et al. Gene set enrichment analysis: A knowledge-based approach for interpreting genome-wide expression profiles. Proc. Nat. Acad.

[6] = human, in vivo, 10 mg
[7] = system: PI3K/mTOR; details: relatively higher concentrations; cited from earlier work
[8] = pH 3
[9] = target: mTORC1 (Homo sapiens, UniProt P42345); details: very low concentration; cited from earlier work
[10] = system: infections; assay: Overall infection rate recorded by diary during the year following initiation of study drug; format: in vivo, human; details: elderly >=65 years
[11] = system: tooth or gum infections; assay: Tooth or gum infections during one year after study drug administration
Method: A total of 264 elderly volunteers ≥65 years of age, without unstable medical conditions, were enrolled in a randomized double blind placebo-controlled trial. […] Subjects were treated for 6 weeks with study drug and, after a 2 week drug-free interval, were given a 2014 seasonal influenza vaccine (Fluvax®, CSL Biotherapies). […] The subjects were then followed for another 9 months off study drug.
As an additional assessment of immune function, the overall infection rate in each treatment group was assessed by having subjects record any infections they experienced during the year following the initiation of study drug treatment in a diary that was reviewed by study investigators at each study visit.

[12] = system: urinary tract infections; assay: Urinary tract infections during one year after study drug administration; format: in vivo, human
[13] = REACTOME_INTERFERON_ALPHA_BETA_SIGNALING
[14] = REACTOME_INTERFERON_GAMMA_SIGNALING

## Cn1c(=O)n(-c2ccc(C(C)(C)C#N)cc2)c2c3cc(-c4cnc5ccccc5c4)ccc3ncc21 [BEZ235, 2-methyl-2-[4-(3-methyl-2-oxo-8-quinolin-3-yl-2,3-dihydro-imidazo[4,5-c]quinolin-1-yl)-phenyl]-propionitrile]
[1]
  maximum tolerated dose: 1200 mg daily
[2]
  incidence and severity of respiratory tract infections during the 6 weeks subjects were treated with study drug: reduction
[3]
  tolerability: well tolerated
[4]
  concentration at which mTORC1 and mTORC2 inhibition predominates: less than 200 nmol/L
[5]; REACTOME_CYTOKINE_SIGNALING_IN_IMMUNE_SYSTEM, listed as Bez
  Up-regulated genes: IFITM3; FCGR1A; FCGR1B; HLA-DQA2; and CDK1
[5]; REACTOME_CYTOKINE_SIGNALING_IN_IMMUNE_SYSTEM
  Mean FC Genes In Pathway: 0.02
[5]; REACTOME_IMMUNE_SYSTEM, listed as Bez
  Up-regulated genes: IFITM3; LILRB4; TRIM9; FCGR1A;; also recorded: FCGR1B; CD274; HLA-DQA2; RAP1GAP;; also recorded: TLR5; C1QA; C1QB; C3; C4BPA;; also recorded: PDCD1LG2; KLHL13; CD80; CDK1
[5]; REACTOME_IMMUNE_SYSTEM
  Mean FC Genes In Pathway: 0.01
[5]; [13]
  Up-regulated genes: IFITM3
  Mean FC Genes In Pathway: 0.03
[5]; [14]
  Up-regulated genes: FCGR1A; FCGR1B; HLA-DQA2
  Mean FC Genes In Pathway: 0.04
[5]; REACTOME_INTERFERON_SIGNALING
  Up-regulated genes: IFITM3; FCGR1A; FCGR1B, HLA-DQA2
  Mean FC Genes In Pathway: 0.03
[6]
  inter-patient variability, AUClast,ss % CV: 39%
[7]
  concentration of dual PI3K/mTOR inhibition: approximately 500 nmol/L
[8]
  solubility: low
[9]
  concentration at which mTORC1 inhibition predominates: less than or equal to 10 nmol/L

## CO[C@H]1C[C@@H]2CC[C@@H](C)[C@@](O)(O2)C(=O)C(=O)N2CCCC[C@H]2C(=O)O[C@H]([C@H](C)C[C@@H]2CC[C@@H](OCCO)[C@H](OC)C2)CC(=O)[C@H](C)/C=C(\C)[C@@H](O)[C@@H](OC)C(=O)[C@H](C)C[C@H](C)/C=C/C=C/C=C/1C [RAD001, (1R,9S,12S,15R,16E,18R,19R,21R,23 S,24E,26E,28E,30S,32S,35R)-1,18-dihydroxy-12-{(1R)-2-[(1 S,3R,4R)-4-(2-hydroxyethoxy)-3-methoxycyclohexyl]-1-methylethyl}-19,30-dimethoxy-15,17,21,23,29,35-hexamethyl-11,36-dioxa-4-aza-tricyclo[30.3.1.04,9]hexatriaconta-16,24,26,28-tetraene-2,3,10,14,20-pentaone]
[10]; RAD001 0.1 mg daily for 6 weeks
  Infection rate/person for one year after study drug administration: 2.0
[10]; RAD001 0.5 mg daily for 6 weeks
  Infection rate/person for one year after study drug administration: 2.1
[11]; RAD001 0.1 mg daily
  Number of tooth or gum infections per person for one year after study drug administration: .02
[11]; RAD001 0.5 mg daily
  Number of tooth or gum infections per person for one year after study drug administration: .02
[12]; RAD001 0.1 mg daily, N = 51
  Percent of subjects with urinary tract infections during one year after study drug administration: 10%
[12]; RAD001 0.5 mg daily, N = 46
  Percent of subjects with urinary tract infections during one year after study drug administration: 11%
